Results reported in patent US20060217375A1, “New compounds” (priority 2004, published 2006).

Assays:
human OX-1R = biological target: T1, human OX-1R (Homo sapiens, UniProt O43613); test: Functional Ki determination: inhibition of orexin-A induced Ca2+ release (FLIPR, Fluo-4AM) in HEK293EBNA cells stably expressing OX-1R; type: cell-based
T1 construct: expressed in transfected cells; host or cells: HEK293EBNA
T1 sequence (O43613 1-425): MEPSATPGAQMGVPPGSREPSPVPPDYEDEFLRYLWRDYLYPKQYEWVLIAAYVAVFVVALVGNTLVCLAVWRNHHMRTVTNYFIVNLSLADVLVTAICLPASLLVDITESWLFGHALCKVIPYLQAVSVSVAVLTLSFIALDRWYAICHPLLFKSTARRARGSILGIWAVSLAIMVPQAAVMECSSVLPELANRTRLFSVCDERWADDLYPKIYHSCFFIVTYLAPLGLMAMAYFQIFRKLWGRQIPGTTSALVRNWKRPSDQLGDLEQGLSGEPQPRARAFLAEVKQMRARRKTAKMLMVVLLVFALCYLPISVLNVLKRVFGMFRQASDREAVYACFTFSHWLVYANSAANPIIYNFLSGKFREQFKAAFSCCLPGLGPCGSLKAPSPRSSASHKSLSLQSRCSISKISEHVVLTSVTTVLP
Description: Human embryonic kidney (HEK293EBNA) cells stably expressing OX-1R seeded in 96- or 384-well plates are pre-loaded with Ca^2+ sensing probe Fluo-4AM fluorescent dye for 60 min before addition of test compounds (10 μM for primary screen). Fluorescent intensity, which is a measurement of Ca^2+ concentration inside the cells, is recorded using a Fluorometric imaging plate reader (FLIPR 98R 96-well format or FLIPR 3, 384-well format, Molecular Devices) and inhibition of the peak response evoked by orexin-A (EC70 concentration) is calculated. Potency (Ki) determinations are performed utilizing the same functional assay as described for primary screening, applying the compounds in the concentration range of 340 pM to 20 μM and recording the concentration resulting in a 50% inhibition of orexin-A induced Ca^2+ release (IC50) and from there calculating the inhibition constant (Ki).
The calculation of the functional Ki values for the inhibitors was performed by use of Activity Base. The Ki value is calculated from IC50 using the Cheng Prushoff equation (with reversible inhibition that follows the Michaelis-Menten equation): Ki=IC50/(1+[S]/Km) (Cheng, Y. C. & Prushoff, W. H. (1973) Biochem. Pharmacol. 22:3099-3108).

ob/ob mice = settings: 30 mg/kg i.p. once daily for 7 days plus twice daily for another 7 days; cited from earlier work
rats = settings: i.p.; cited from earlier work

With `COc1cc(-c2ccc3c(c2)OC2(CCNCC2)O3)cc(OC)c1OC` [Example 4, 5-(3,4,5-trimethoxyphenyl)spiro[1,3-benzodioxole-2,4′-piperidine]] the Ki (human OX-1R) was 823 nM.
In the case of `Cc1nc2ccc(NC(=O)Nc3ccnc4cccnc34)cc2o1` [SB-334867], the body weight gain (ob/ob mice) is listed as “suppressed”, the cumulative food intake (ob/ob mice) is listed as “suppressed” and the lean body mass (ob/ob mice) is listed as “unchanged”. For the same molecule, the total fat mass (ob/ob mice) was “reduced” and the behavioral satiety sequence (rats) was “advances the behavioral satiety sequence increasing the time the animals spend resting”.
In the case of `O=C(COc1cccc(-c2ccc3c(c2)COC2(CCNCC2)O3)c1)Nc1ccccc1` [Example 8, N-phenyl-2-[3-(4H-spiro[1,3-benzodioxine-2,4′-piperidin]-6-yl)phenoxy]acetamide], the Ki (human OX-1R) is reported as 253 nM.
Work on `COc1cc(-c2ccc3c(c2)COC2(CCNCC2)O3)cc(OC)c1OC` [Example 2, 6-[3,4,5-trimethoxyphenyl]-4H-spiro[1,3-benzodioxine-2,4′-piperidine]] yielded a Ki (human OX-1R) of 349 nM.
